Laboratory results from patent US11076597B2, “High stress resistant plant growth regulator and preparation method and use thereof” (SHANGHAI INSTITUTES FOR BIOLOGICAL SCIENCES, CHINESE …, priority 2015, dated 2021).
Entries after “also recorded” stand apart in the source; their conditions may differ.

Test system: cotton
Assay: Soil drought experiment, cotton
Assay type: in vivo
Settings: 20 μM sprayed once every 3 days; re-watering after 6 days of drought; FIG. 9
Procedure: Soybean, cotton and wheat for leaf transpiration experiments were used simultaneously for soil drought experiments, each pot was filled with the same weight of soil to reduce experimental error. All the soybean plants were subjected to a long-day culture at 26° C. 14 days after sowing, watering was stopped and the plants with the consistent growth condition were selected for drought treatment. At the start of the drought, a solution containing 0.1% Tween-20 and 20 μM (+)-ABA/0224/0304 or 0.1% Tween-20 and 0.05% DMSO (control) was sprayed onto the leaf surface once with a spray amount of 4 ml solution/pot. Meanwhile, the position of the pot was changed and re-watered 6 days after the drought, and the photos were taken 1 day after re-watering. The drought experiment of cotton was similar to that of soybeans, watering was stopped 25 days after sowing, the plants with the consistent growth condition were selected for drought treatment. At the start of the drought, a solution containing 0.1% Tween-20 and 20 μM (+)-ABA/0224 or 0.1% Tween-20 and 0.05% DMSO (control) was sprayed onto the leaf surface once with a spray amount of 4 ml solution/pot, and then sprayed once every 3 days. Meanwhile, the position of the pot was changed and re-watered 6 days after the drought, and the photos were taken before re-watering and 1 day after re-watering. […]

**Q.** With CCCN1C(=O)OC(C)c2cc(NS(=O)(=O)Cc3c(F)c(F)c(C)c(F)c3F)ccc21 (stereo not shown) [Compound 0224] as the compound, how does the “growth after drought and re-watering” value read?
**A.** significantly better than that of the control group (DMSO) or that of the cotton treated with the same concentration of ABA; also recorded: significantly better growth after re-watering than that in the DMSO-sprayed control group and the plants sprayed with the same concentration of ABA
